Here are results for two compounds from PMC12042267, “Expanding the Family of Monosubstituted 15-Membered Pyridine-Based Macrocyclic Ligands for Mn(II) Complexation in the Context of MRI” (Inorganic Chemistry, 2025).

Assay type in all cases: physicochemical
A short description of series [1]: Ligand protonation constants by pH-potentiometric titration. As to conditions: I = 0.15 M NaCl; 25 °C. On the procedure:
(§1) Metal stock solutions were prepared from the highest analytical grade chemicals, and their concentration was determined by complexometric titration with standardized Na2H2EDTA, using xylenol orange indicator in the presence of urotropine buffer (ZnCl2 and MnCl2); Eriochrome black T indicator in the presence of ammonium acetate buffer (CaCl2) or murexide indicator in ammonium solution (CuCl2). The concentration of the ligand stock solutions was determined by pH-potentiometric titrations (the difference between two consecutive inflection points of the ligand titration curve corresponds to two (L2) or one (L3) ligand equivalents). To determine the protonation constants of the ligand and stability constants of the metal complexes with selected divalent metal ions, pH-potentiometric titrations were carried out with 0.1 M NaOH at 2 mM ligand concentration, in the absence (for ligand protonation constants) or in the presence of one equivalent of metal ion (for stability constants). During the titration, the waiting time was 2 min between successive points (V0 = 5 mL). The temperature (25.0 ± 0.1 °C) was controlled by a circulating water bath. The ionic strength was set to I = 0.15 M NaCl. All titrations were performed under a nitrogen atmosphere to avoid the effect of CO2. Titrations were carried out in the pH range from 1.8 (L3) or 2.0 (L2) (after the addition of 1 M HCl solution to the starting ligand solution in the titration cell) to pH 11 (or until precipitation of the metal hydroxide). All pH-potentiometric titrations were performed using a 785 DMP Titrino titration workstation with a combined electrode (Metrohm). The p[H] (p[H] = −log[H+], concentration in molarity) was measured in each titration with a combined pH glass electrode (Metrohm) filled with 3 M KCl. The electrode was calibrated in hydrogen ion concentration by titration of HCl with KOH in 0.1 M electrolyte solution.[37] A plot of potential versus p[H] allows determination of the electrode standard potential (E°) and the slope factor (f).
The protonation constants of the ligand (log Ki^H) are defined as follows [drawing 1] where i = 1, 2, ··· and [Hi–1L] and [H^+] are the equilibrium concentrations of the ligand (i = 1), its protonated forms (i = 2, ···), and the hydrogen ion. The stability (KML) and the protonation (KMHiL) constants for the metal complexes are defined as follows [drawing 2] [drawing 3] For the calculations of the equilibrium constants, the HYPERQUAD program was used.[38] The number of fitted data pairs was between 190 and 240. The ionic product of water at 25 °C and 0.1 M ionic strength is pKw = 13.77.[39] Fixed values were used for pKw, ligand acidity constants, and total concentrations of metal, ligand, and acid. […]

Series [2] can be described thus: Stability constants of Ca(II) complexes by pH-potentiometry. To be noted: I = 0.15 M NaCl, 25 °C. On the procedure:
as §1
(§2) The protonation constants of the ligand (log Ki^H) are defined as follows [drawing 1] where i = 1, 2, ··· and [Hi–1L] and [H^+] are the equilibrium concentrations of the ligand (i = 1), its protonated forms (i = 2, ···), and the hydrogen ion. The stability (KML) and the protonation (KMHiL) constants for the metal complexes are defined as follows [drawing 2] [drawing 3] For the calculations of the equilibrium constants, the HYPERQUAD program was used.[38] The number of fitted data pairs was between 190 and 240. The ionic product of water at 25 °C and 0.1 M ionic strength is pKw = 13.77.[39] Fixed values were used for pKw, ligand acidity constants, and total concentrations of metal, ligand, and acid. All values and errors (one standard deviation) reported are at least the average of two independent experiments.

Series [3] in a line: Stability constants of Mn(II) complexes by pH-potentiometry, pMn and species distribution. To be noted: for log KML / log KML(OH): Mn(II), I = 0.15 M NaCl, 25 °C; for pMn: pMn = −log[Mn(II)]free at pH 7.4, cMn = clig = 10^–5 M. As to the method: as §1, §2
To obtain further information about the impact of a given pendant arm, it is interesting to calculate pMn values (pMn = −log[Mn(II)]free at pH 7.4, cMn = clig= 10^–5 M) which provide a more direct comparison of MnL stabilities, independently of differences in protonation constants (Table 4). […] Nevertheless, the too large, 15-membered macrocyclic cavity combined with a lower number of pendant arms provide ca. 2 orders of magnitude lower stability for Mn(II) complexation as compared to the 12-membered pyclen derivatives (Table 4).

Series [4] is described as follows: Stability constants of Zn(II) complexes by pH-potentiometry. To be noted: I = 0.15 M NaCl, 25 °C. As to the method:
as §1, §2

A short description of series [5]: Stability constants of Cu(II) complexes by pH-potentiometry. As to conditions: I = 0.15 M NaCl, 25 °C. On the procedure:
as §1, §2

The nature of series [6]: Dissociation kinetics of Mn(II) complexes, transmetalation with Zn(II) (T2 relaxation). To be noted: Zn(II) transmetalation, 25 °C, 0.15 M NaCl, pH 4.9–6.0. On the procedure: The transmetalation reaction of MnL2 and MnL3 (1.4 mM) was monitored in the presence of 10, 20, 30, and 40 mol equiv of Zn(II) ions, by measuring water proton T2 relaxation times (60 MHz) as a function of time at 25 °C and in 0.15 M NaCl, in the pH range 4.9–6.0 (4.9, 5.0, 5.2, 5.5, and 6.0). To control pH, 50 mM N-methyl-piperazine (pH 4.9–5.5) or 50 mM MES (2-(4-morpholino)ethane-sulfonic acid) buffer (pH 5.7–6.0) was used. Transmetalation of MnL2 (0.3 mM) was also investigated in the presence of 10, 20, 30, and 40 mol equiv of Cu(II) ions, by monitoring the UV–vis absorbance at 274.0 nm as a function of time at 25 °C and in 0.15 M NaCl, in the pH range 4.7–5.0 (in 75 mM 1,4-dimethyl piperazine (DMP) buffer). No oxidation of the samples was observed. The program OriginPro 9 was used for the fitting of experimental data.
The dissociation kinetics was followed through monitoring Mn(II) release by water proton T2 measurements, at pH […], in the presence of 10- to 40-fold excess of Zn(II) and through UV–vis measurements in the presence of 10- to 40-fold excess of Cu(II) at pH 4.7–5.0 (only for MnL2). The observed dissociation rate constants, kobs, increase with increasing H^+ ion concentration (Figures 4, left and S20). They remain independent of Zn(II) concentration (Figures S18 and S19), but do show dependence on Cu(II) concentration (Figure S21).
In excess of the exchanging metal ion, the reaction is of pseudo-first order, and the rate is proportional to the total MnL2 or MnL3 concentration (eq 1), where kobs is the pseudo-first-order rate constant. [drawing 4] 1 In general, different dissociation pathways can coexist, implying the participation of protons and/or the exchanging metal ion,[47] as illustrated in Figure 5.
Based on this scheme, the overall rate for either Zn(II) or Cu(II) transmetalation can be given by eq 2, where M = Zn^2+ or Cu^2+ (for clarity, charges of the complexes are omitted). [drawing 5] 2 Here, the first and second terms correspond to the spontaneous dissociation of the nonprotonated and the monoprotonated complexes, respectively, the third term describes the proton-assisted dissociation of the monoprotonated complex, and the last two terms refer to the spontaneous dissociation of the dinuclear complex and metal-assisted dissociation of the monoprotonated MnL2 or MnL3 complex. [MnL]tot describes the total concentration of Mn(II) chelates ([MnL]tot = [MnL] + [MnHL] + [ZnLMn]). Since no obvious Zn(II) dependence (for any of the two systems) was observed, only the spontaneous and proton-assisted dissociation pathways were taken into consideration. Consequently, the observed rate constants can be expressed as in eq 3 with k0 = kMnL, k1 = kMnHL·KMnHL, and k2 = ^HkMnHL·KMnHL. [drawing 6] 3 The kobs rate constants were fitted to eq 3, and the calculated parameters are listed in Table 5 for the Zn(II) exchange. During the fitting procedure, KMnHL was fixed to the value obtained from the pH-potentiometric titrations.

The structures appear in SMILES notation.

As for `c1ccc(CN2CCOCCOCCNCc3cccc(n3)C2)nc1` [L2], in series [1], the “log K2^H” value was 7.14(1) and the “log K3^H” value is 2.1(1). In addition, in series [2], the “log KH2ML” value is given as 6.63(9), the “log KHML” value is 7.23(7) and the “log KML” value is given as 4.11(4). For the same compound, in series [3], the “log KML” value is 10.25(1), the “log KML(OH)” value was -10.89(3) and the pMn is on record as 6.93. In series [4], the “log KHML” value was 2.99(2), the “log KML” value was 13.36(1) and the “log KML(OH)” value is -10.97(2). Also, in series [5], the “log KML” value is recorded as 16.57(8) and the “log KML(OH)” value is -10.78(8). Moreover, in series [6], the “k0 (spontaneous dissociation of the nonprotonated complex)” value is on record as “(1.1 ± 0.3) × 10^–3 s^–1”, the “k1 (spontaneous dissociation of the monoprotonated complex)” value came to 737 ± 110 M^–1 s^–1 and the “k2 (proton-assisted dissociation of the monoprotonated complex)” value is reported as “(4.5 ± 0.8) × 10^7 M^–2 s^–1”.
`c1cc2nc(c1)CN(Cc1nc3ccccc3[nH]1)CCOCCOCCNC2` [L3]: in series [1], the “log K2^H” value is on record as 5.85(1) and the “log K3^H” value is reported as 1.98(1). Moreover, in series [2], the “log KHML” value is on record as 6.72(6), the “log KML” value is 3.53(1) and the “log KML(OH)” value was -10.93(1). In series [3], the “log KML” value is listed as 9.74(1), the “log KML(OH)” value is -9.78(1) and the pMn came to 6.80. Besides, in series [4], the “log KHML” value is reported as 2.09(6), the “log KML” value was 12.09(1) and the “log KML(OH)” value was -9.33(2). For the same compound, in series [5], the “log KHML” value was 2.1(4), the “log KML” value is on record as 16.91(2) and the “log KML(OH)” value is given as -7.9(1). In addition, in series [6], the “k0 (spontaneous dissociation of the nonprotonated complex)” value is “(1.9 ± 0.3) × 10^–3 s^–1” and the “k1 (spontaneous dissociation of the monoprotonated complex)” value is recorded as 912 ± 41 M^–1 s^–1.
